Results from PMC7158045 (BMC Plant Biology, 2020).

Experiments:
Assay in all cases: biochemical
ZmDRIK1-R187-P492 = molecular target: T1, ZmDRIK1-R187-P492 (Zea mays, UniProt C0P4K9); details: read-out: dTm B, DSF, Boltzmann fit, 0.1% DMSO
T1 construct: kinase domain, R187-P492
T1 sequence (C0P4K9 1-514): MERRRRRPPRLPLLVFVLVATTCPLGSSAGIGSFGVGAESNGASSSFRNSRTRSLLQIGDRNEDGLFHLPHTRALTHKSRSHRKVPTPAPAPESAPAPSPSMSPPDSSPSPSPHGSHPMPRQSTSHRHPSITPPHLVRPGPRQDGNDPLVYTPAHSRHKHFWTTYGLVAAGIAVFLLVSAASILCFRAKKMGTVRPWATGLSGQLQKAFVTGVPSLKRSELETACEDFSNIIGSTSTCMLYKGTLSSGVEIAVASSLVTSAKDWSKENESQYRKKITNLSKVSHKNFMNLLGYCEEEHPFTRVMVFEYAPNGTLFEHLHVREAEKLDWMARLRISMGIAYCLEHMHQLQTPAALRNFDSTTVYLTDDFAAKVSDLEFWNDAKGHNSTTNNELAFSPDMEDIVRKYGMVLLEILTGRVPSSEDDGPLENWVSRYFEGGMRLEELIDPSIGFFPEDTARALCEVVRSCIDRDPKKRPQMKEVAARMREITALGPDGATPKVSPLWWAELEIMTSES

ZmDRIK1-K217-S514 = molecular target: T2, ZmDRIK1-K217-S514 (Zea mays, UniProt C0P4K9); details: read-out: dTm B, sheet ZmDRIK1-K217-S514;; DSF, Boltzmann fit, 0.1% DMSO
T2 construct: kinase domain, K217-S514
T2 sequence (C0P4K9 1-514): T1 sequence (C0P4K9 1-514)

[1] = molecular target: T3, ZmDRIK1 (DROUGHT RESPONSIVE INACTIVE KINASE 1), kinase domain (Zea mays, UniProt C0P4K9); details: read-out: dTm B, sheet ZmDRIK1-R187-S514;; DSF, Boltzmann fit, 0.1% DMSO
T3 construct: gene ZEAMMB73_Zm00001d028770; ZmDRIK1-KD R187-S514 (kinase domain)
T3 sequence (C0P4K9 187-514): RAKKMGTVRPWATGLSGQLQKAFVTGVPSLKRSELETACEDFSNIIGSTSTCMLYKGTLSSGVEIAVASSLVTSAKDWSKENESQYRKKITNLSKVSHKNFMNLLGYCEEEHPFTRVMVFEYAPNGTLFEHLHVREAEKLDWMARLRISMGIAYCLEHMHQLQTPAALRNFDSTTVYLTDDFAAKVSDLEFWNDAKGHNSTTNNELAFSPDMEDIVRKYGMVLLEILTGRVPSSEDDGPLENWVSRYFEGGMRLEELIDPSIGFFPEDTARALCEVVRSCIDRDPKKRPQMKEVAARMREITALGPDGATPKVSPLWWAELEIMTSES

ZmDRIK1-K217-P492 = molecular target: T4, ZmDRIK1-K217-P492 (Zea mays, UniProt C0P4K9); details: read-out: dTm B, sheet ZmDRIK1-K217-P492;; DSF, Boltzmann fit, 0.1% DMSO
T4 construct: kinase domain, K217-P492
T4 sequence (C0P4K9 1-514): T1 sequence (C0P4K9 1-514)

| ΔTm at 10 µM (ZmDRIK1-R187-P492) | ΔTm at 10 µM (ZmDRIK1-K217-S514) | ΔTm at 10 µM [1] | ΔTm at 10 µM (ZmDRIK1-K217-P492) | Structure (SMILES) |
| --- | --- | --- | --- | --- |
| -0.417 °C | -0.394 °C | -0.576 °C | -1.24 °C | Cc1ncc(-c2ccnc(Nc3ccc(S(C)(=O)=O)cc3)n2)n1C(C)C [AZD5438] |
| -0.2 °C | -0.29 °C | -0.715 °C | -1.04 °C | Cc1cc([C@@H](C)Nc2ccccc2C(=O)O)c2nc(N3CCOCC3)cc(=O)n2c1 [AZD6482] |
| -0.167 °C | -0.261 °C | -0.804 °C | -0.323 °C | NC(=O)Nc1cc(-c2cccc(F)c2)sc1C(=O)N[C@H]1CCCNC1 [AZD7762] |
| -0.238 °C | -0.326 °C | -1.22 °C | -1.14 °C | CNC(=O)CN1CCC(Oc2cc3c(Nc4cccc(Cl)c4F)ncnc3cc2OC)CC1 [AZD8931 (Sapitinib)] |
| -0.293 °C | -0.27 °C | -0.497 °C | -1.19 °C | C=CC(=O)Nc1cc(Nc2nccc(-c3cn(C)c4ccccc34)n2)c(OC)cc1N(C)CCN(C)C [AZD9291] |
| -0.346 °C | -0.623 °C | -0.728 °C | -1.3 °C | CN(C)C/C=C/C(=O)Nc1cc2c(Nc3ccc(F)c(Cl)c3)ncnc2cc1O[C@H]1CCOC1 [Afatinib (BIBW2992)] |
| -0.28 °C | -0.311 °C | -0.808 °C | -0.944 °C | N#CC1(c2ccc(NC(=O)c3cccnc3NCc3ccncc3)cc2)CCCC1 [Apatinib] |
| -0.41 °C | -0.368 °C | -0.753 °C | -1.33 °C | C[C@H]1[C@H](C)CC[C@]2(C(=O)O)CC[C@]3(C)C(=CC[C@@H]4[C@@]5(C)C[C@@H](O)[C@H](O)[C@@](C)(CO)[C@@H]5CC[C@]43C)[C@H]12 [Asiatic Acid] |
| -0.479 °C | -0.612 °C | -0.701 °C | -1.48 °C | CC(C)CCN1c2nc(Nc3cc(F)c(O)c(F)c3)ncc2N(C)C(=O)C1C (stereo not shown) [BI-D1870] |
| -0.00337 °C | -0.0855 °C | -0.816 °C | -0.147 °C | CN(C)Cc1cccc(N/C(=C2\C(=O)Nc3cc(C(N)=O)ccc32)c2ccccc2)c1 [BIX 02188] |
| -0.0835 °C | -0.274 °C | -0.921 °C | 0.0556 °C | CN(C)Cc1cccc(N=C(c2ccccc2)c2c(O)[nH]c3cc(C(=O)N(C)C)ccc23)c1 [BIX 02189] |
| -0.326 °C | -0.33 °C | -0.731 °C | -1.39 °C | Nc1cc(C(F)(F)F)c(-c2cc(N3CCOCC3)nc(N3CCOCC3)n2)cn1 [BKM120 (NVP-BKM120)] |
| -0.249 °C | -0.226 °C | -0.676 °C | -1.05 °C | CCCCOc1c(C(=O)c2c(F)cc(C)cc2F)c[nH]c2nncc1-2 [BMS-265246] |
| -0.284 °C | -0.645 °C | -0.852 °C | -1.5 °C | Cc1cc(N2CCOCC2)cc2[nH]c(-c3c(NC[C@@H](O)c4cccc(Cl)c4)cc[nH]c3=O)nc12 [BMS-536924] |
| -1.23 °C | -1.39 °C | -0.711 °C | -1.46 °C | O=C(NCCCNc1nc(Nc2cccc(NC(=O)N3CCCC3)c2)ncc1I)c1cccs1 [BX-795] |
| -0.328 °C | -0.465 °C | -0.448 °C | -0.718 °C | Cc1nc(NC(=O)N2CCC[C@H]2C(N)=O)sc1-c1ccnc(C(C)(C)C(F)(F)F)c1 [BYL719] |
| -0.129 °C | -0.253 °C | -1.11 °C | -0.927 °C | CCN(CCO)CCCOc1ccc2c(Nc3cc(CC(=O)Nc4cccc(F)c4)[nH]n3)ncnc2c1 [Barasertib (AZD1152-HQPA)] |
| -0.504 °C | -0.426 °C | -1.08 °C | -1 °C | Cc1cc2c(F)c(Oc3ncnn4cc(OC[C@@H](C)OC(=O)[C@H](C)N)c(C)c34)ccc2[nH]1 [Brivanib Alaninate (BMS-582664)] |
| -0.326 °C | -0.31 °C | -0.612 °C | -0.995 °C | CC[C@H](Nc1ncnc2[nH]cnc12)c1nc2cccc(F)c2c(=O)n1-c1ccccc1 [CAL-101 (Idelalisib)] |

Further lines, the molecule ahead of its results:

| Structure (SMILES) | ΔTm at 10 µM (ZmDRIK1-R187-P492) | ΔTm at 10 µM (ZmDRIK1-K217-S514) | ΔTm at 10 µM [1] | ΔTm at 10 µM (ZmDRIK1-K217-P492) |
| --- | --- | --- | --- | --- |
| COc1cc(CCc2cc(NC(=O)c3ccc(N4C[C@@H](C)N[C@@H](C)C4)cc3)n[nH]2)cc(OC)c1 [AZD4547] | 0.421 °C | 0.296 °C | 0.239 °C | 0.194 °C |
| NC1(C(=O)N[C@@H](CCO)c2ccc(Cl)cc2)CCN(c2ncnc3[nH]ccc23)CC1 [AZD5363] | -0.504 °C | -0.652 °C | -0.693 °C | -1.06 °C |
| COc1ccc(-c2ccc3c(N4CCOC[C@@H]4C)nc(N4CCOC[C@@H]4C)nc3n2)cc1CO [AZD8055] | -0.00437 °C | -0.119 °C | -0.773 °C | -0.668 °C |
| Cc1cc(C(=O)NOCCO)c(Nc2ccc(I)cc2F)n(C)c1=O [AZD8330] | -0.162 °C | -0.42 °C | -0.935 °C | -0.83 °C |
| NC(=O)c1ncn([C@@H]2O[C@H](CO)[C@@H](O)[C@H]2O)c1N [Acadesine] | -0.0339 °C | -0.387 °C | -0.564 °C | -0.691 °C |
| COc1cc(Nc2ncc3c(n2)-c2ccc(Cl)cc2C(c2c(F)cccc2OC)=NC3)ccc1C(=O)O [Alisertib (MLN8237)] | -0.494 °C | -0.528 °C | -1.37 °C | -1.1 °C |
| CCN1CCN(C(=O)Cc2ccc(Nc3ncc(F)c(Nc4ccc(C(=O)Nc5ccccc5Cl)cc4)n3)cc2)CC1 [Aurora A Inhibitor I] | -0.457 °C | -0.286 °C | -0.616 °C | -1.33 °C |
| CNC(=O)c1ccccc1Sc1ccc2c(/C=C/c3ccccn3)n[nH]c2c1 [Axitinib] | -0.367 °C | -0.335 °C | -0.702 °C | -1.24 °C |
| Cc1ccc(S(=O)(=O)/C=C/C#N)cc1 [BAY 11-7082] | -1.15 °C | -0.963 °C | -1.51 °C | -2.48 °C |
| Cc1ccc(-n2nc(C(C)(C)C)cc2NC(=O)Nc2ccc(OCCN3CCOCC3)c3ccccc23)cc1 [BIRB 796 (Doramapimod)] | -0.248 °C | -0.405 °C | 0.000298 °C | -0.873 °C |
| Cc1ccc2nc(NCCN)c3ncc(C)n3c2c1 [BMS-345541] | -0.153 °C | -0.486 °C | -0.926 °C | -0.0998 °C |
| CCOc1ccn(-c2ccc(F)cc2)c(=O)c1C(=O)Nc1ccc(Oc2ccnc(N)c2Cl)c(F)c1 [BMS-777607] | -0.218 °C | -0.662 °C | -1.06 °C | -0.979 °C |
| Nc1nccc(Oc2ccc(NC(=O)c3c[nH]cc(-c4ccc(F)cc4)c3=O)cc2F)c1Cl [BMS-794833] | 0.213 °C | -19 °C | -1.96 °C | -0.717 °C |
| O=C(Nc1cccc(Nc2ncc(Br)c(NCCc3cnc[nH]3)n2)c1)N1CCCC1 [BX-912] | -0.165 °C | -0.277 °C | -0.512 °C | -0.986 °C |
| COC(=O)[C@]12CCC(C)(C)C[C@H]1[C@H]1C(=O)C=C3[C@@]4(C)C=C(C#N)C(=O)C(C)(C)[C@@H]4CC[C@@]3(C)[C@]1(C)CC2 [Bardoxolone Methyl] | -1.1 °C | -1.7 °C | -2.89 °C | -4.07 °C |
| COc1cc(Nc2c(C#N)cnc3cc(OCCCN4CCN(C)CC4)c(OC)cc23)c(Cl)cc1Cl [Bosutinib (SKI-606)] | -0.491 °C | -0.473 °C | -0.814 °C | -1.46 °C |
| Cc1cc2c(F)c(Oc3ncnn4cc(OC[C@@H](C)O)c(C)c34)ccc2[nH]1 [Brivanib (BMS-540215)] | -0.365 °C | -0.0833 °C | -1.28 °C | -0.796 °C |
| O=C(/C=C/c1ccc(O)c(O)c1)c1ccc(O)cc1O [Butein] | 0.882 °C | 0.982 °C | 0.686 °C | 1.78 °C |
